Laboratory results: patent publication US6395775B1, “Combating pest insects” (priority 1995, dated 2002)
“Also recorded” adds a separate entry of the source.

Legend:
[1] = system: codling moth, Cydia pomonella; test: Pheromone trap catch test; assay type: in vivo; conditions: for behavioural effect on codling moth in pheromone traps: isomer of the acetate combined with E8,E10-dodecadien-1-ol in traps
Excerpt: Pheromone traps were loaded with the pheromone, E8,E10-dodecadien-1-ol of the codling moth, (FIG. 1A). In other traps the alcohol was combined with the corresponding acetate (FIG. 1B). At a blend of 20% of the acetate the catch decreased to ⅛ (dark column).

[2] = system: codling moth, Cydia pomonella; test: Confusion test in 100 m^2 test areas in a fruit orchard; assay type: in vivo; conditions: for confusing effect (males trapped compared with non-treated control square): four dispensing means in the corners, pheromone trap in the center
Method: In another test a confusion test was carried out in 100 m^2 quadratic test areas in a fruit orchard. […] In the respective center of each square, a pheromone trap loaded with the sex pheromone, E8, E10-dodecadien-1-ol of the codling moth, was placed. The confusing effect was calculated as the number of males trapped in the trap compared with the number trapped in a trap in a non-treated control square, i.e. without any behavior antagonist in the respective corner. […] The sex pheromone of the codling moth, the alcohol, is as already mentioned, in commercial use. The inhibiting results are, however, not always satisfying, (Cardé & Minks, 1995, “Control of moth pests by mating disruption. Successes and constraints”, Ann. Rev. Entomol. 49:559-585) in particular not in fruit orchards having high trees and a high population density. […] Probably, the concentration of pheromone from located dispensing means so low there, that the attracting power of the pheromone dominates its confusing effect. Males circulating in the tree tops may also be caught in lower placed traps which indicates a lacking confusing effect. […] Several of the males caught in pheromone traps in such treated squares can be seen flying some meters above the ground and straight into the trap. They never arrived from the top of the trees.

C. pomonella males = test: Wind tunnel experiments, male attraction; assay type: in vivo, Cydia pomonella; conditions: codlemone 10 pg/min; E8,Z10-dodecadien-1-ol added at 3% by weight or E8,E10-dodecadienyl acetate at 1% by weight; n=60
Excerpt: Tests were done in a wind tunnel with a flight section of 63 by 90 by 200 cm. Dilutions of synthetic compounds in redistilled ethanol were released from an ultrasound evaporator (Gödde et al. 1999). A motor-driven syringe delivered pheromone solutions in ethanol, through micro-tubing, to a glass capillary tube with a 40 μm tip. A piezo-ceramic disc vibrates the tip of the capillary tube at 100-140 kHz, and the pheromone solution evaporates within a few cm of the tip of the capillary.
The main compound codlemone, E8,E10-dodecadien-1-ol, was applied at a rate of 10 pg/min, E8,Z10-dodecadien-1-ol was added at 3% by weight (FIG. 2), E8,E10-dodecadienyl acetate was added at 1% by weight (FIG. 3).
Test sessions started 1 h after lights off and lasted 3 to 4 h. Two-day-old males were placed individually in glass tubes (15 by 2.5 cm) stoppered with gauze, 15 min prior to testing. Males were released individually and were allowed 2 min to respond. Treatments were tested on 4 days with 15 males/day (n=60).
The sequence of male behaviours elicited by perception of sex pheromone includes activation from rest and taking flight, upwind-oriented flight towards the pheromone source, landing at the pheromone source, and display of courtship behaviors close to the source (walking while wingfanning) (FIGS. 2 and 3). These behaviors are followed by mating, if the pheromone source is a calling female.

codling moth = conditions: cited from earlier work; for previous classification of behavioural role: Hathaway et al. 1974, Witzgall et al. 1996a, El-Sayed et al. 1998

SMILES	behavioural effect on codling moth in pheromone traps [1]	confusing effect (males trapped compared with non-treated control square) [2]	male attraction and close range behaviours at the pheromone source, compared to E8,E10-dodecadien-1-ol alone (C. pomonella males)	previous classification of behavioural role (codling moth)	other results
CC=CC=CCCCCCCCOC(C)=O [EZ]	behaviour antagonists	–	–	–	–
CC=CC=CCCCCCCCOC(C)=O [ZZ]	–	–	–	–	behavioural effect on codling moth in pheromone traps ([1]; listed as zz-isomer): most powerful of the four isomers
C/C=C/C=C\CCCCCCCOC(C)=O [ZE]	behaviour antagonists	–	–	–	–
C/C=C/C=C/CCCCCCCOC(C)=O [E8,E10-dodecadien-1-yl acetate]	behaviour antagonist	strong confusing effect	enhances male attraction and close range behaviours; also recorded: acts as an antagonist when present in high amounts, and as a synergist when present in lower amounts	pheromone antagonists	catch in pheromone traps, decrease relative to E8,E10-dodecadien-1-ol alone ([1]; alcohol combined with the acetate, blend of 20% of the acetate): ⅛
C/C=C\C=C\CCCCCCCO [E8,Z10-dodecadien-1-ol]	–	–	enhances male attraction and close range behaviours	pheromone antagonists	–
C/C=C/C=C/CCCCCCCO [E8,E10-dodecadien-1-ol]	–	strong confusing effect	–	–	observation of males in the tree tops of treated squares ([2]; fruit orchards having high trees and a high population density): males are attracted to the tree tops; attraction of the codling moth by geometric isomers of the alcohol (codling moth; Roelofs et al (1972)): very attractive
